The test has as its system BDF1 mice, P1081 chloroleukemia ip, survival T/C. Nature of the test: NCI In Vivo Anticancer Drug Screen. Data for tumor model P1081 Chloroleukemia (intraperitoneal) in B6D2F1 (BDF1) mice. The conditions noted are these: endpoint: mean survival time, higher = longer survival. On the procedure: The antitumor activity of compounds was measured in mice bearing transplantable tumors. Survival or tumor size were measured and the results are expressed as the measurement made in the treated group (T) divided by the measurement made in the vehicle treated control group (C). The tumor model used in this assay is P1081 Chloroleukemia (intraperitoneal) in B6D2F1 (BDF1) mice

[1] abbreviates: dose: 5.0 mg/kg/injection, schedule: Q01DX010 (ip), vehicle: saline.
Setting [2] is: dose: 20.0 mg/kg/injection, schedule: Q01DX010 (ip), vehicle: saline.
[3] abbreviates: dose: 6.25 mg/kg/injection, schedule: Q01DX Z (ip), vehicle: carboxymethylcellulose (CMC).
Where [4] appears, read: dose: 50.0 mg/kg/injection, schedule: Q01DX Z (ip), vehicle: carboxymethylcellulose (CMC).
Where [5] appears, read: dose: 37.5 mg/kg/injection, schedule: Q01DX010 (ip), vehicle: saline.
Setting [6] is: dose: 75.0 mg/kg/injection, schedule: Q01DX010 (ip), vehicle: saline.
Where [7] appears, read: dose: 150.0 mg/kg/injection, schedule: Q01DX010 (ip), vehicle: saline.
Where [8] appears, read: dose: 12.5 mg/kg/injection, schedule: Q01DX Z (ip), vehicle: carboxymethylcellulose (CMC).
Setting [9] is: dose: 25.0 mg/kg/injection, schedule: Q01DX Z (ip), vehicle: carboxymethylcellulose (CMC).
[10] abbreviates: dose: 16.0 mg/kg/injection, schedule: Q01DX010 (ip), vehicle: saline.
[11] abbreviates: dose: 2.5 mg/kg/injection, schedule: Q01DX Z (ip), vehicle: carboxymethylcellulose (CMC).
Where [12] appears, read: dose: 8.0 mg/kg/injection, schedule: Q01DX010 (ip), vehicle: saline.
Setting [13] is: dose: 62.5 mg/kg/injection, schedule: Q01DX Z (ip), vehicle: carboxymethylcellulose (CMC).

Values joined by “and” are separate entries in the source; they are usually repeats but may differ in a detail not shown here. Identical values can stand only once. Toxic doses and inconclusive results are not listed.

Take `C[C@@H]1C[C@@H]([C@H](O)CC2CC(=O)NC(=O)C2)C(=O)[C@@H](C)C1`: the T/C runs as follows: (dose: 0.39 mg/kg/injection, schedule: Q01DX Z (ip), vehicle: water) 89 % of control; (dose: 3.12 mg/kg/injection, schedule: Q01DX Z (ip), vehicle: water) 102 % of control; under setting [1], 86 % of control and 100 % of control; (dose: 10.0 mg/kg/injection, schedule: Q01DX010 (ip), vehicle: saline) 110 % of control and 100 % of control; under setting [2], 115 % of control and 100 % of control; (dose: 25.0 mg/kg/injection, schedule: Q01DX Z (ip), vehicle: water) 93 % of control. Besides, the T/C (dose: 40.0 mg/kg/injection, schedule: Q01DX010 (ip), vehicle: saline) was 90 % of control.

As for `S=P(N1CC1)(N1CC1)N1CC1`, the T/C is 98 % of control (dose: 0.37 mg/kg/injection, schedule: Q01DX Z (ip), vehicle: saline); 96 % of control (dose: 0.75 mg/kg/injection, schedule: Q01DX Z (ip), vehicle: saline); 109 % of control (dose: 1.5 mg/kg/injection, schedule: Q01DX Z (ip), vehicle: saline).

With `N#CCSc1ncnc2nc[nH]c12`, the T/C is 119 % of control under setting [3]; 110 % of control (dose: 15.0 mg/kg/injection, schedule: Q01DX010 (ip), vehicle: saline); 105 % of control and 95 % of control (dose: 30.0 mg/kg/injection, schedule: Q01DX010 (ip), vehicle: saline); 101 % of control under setting [4]; 110 % of control (dose: 60.0 mg/kg/injection, schedule: Q01DX010 (ip), vehicle: saline).

As for `O=C(C[N+]12CN3CN(CN(C3)C1)C2)c1ccc(Cl)cc1`, the T/C by setting is: under setting [5], 113 % of control and 98 % of control; under setting [6], 107 % of control and 112 % of control; under setting [7], 112 % of control and 118 % of control; (dose: 300.0 mg/kg/injection, schedule: Q01DX010 (ip), vehicle: saline) 110 % of control and 114 % of control.

With `CSCS(=O)C[C@H](CO)NC(=O)/C=C/c1c(C)[nH]c(=O)[nH]c1=O` (stereo partly specified), the T/C is, setting by setting: (dose: 0.06 mg/kg/injection, schedule: Q01DX Z (ip), vehicle: saline) 92 % of control; (dose: 0.12 mg/kg/injection, schedule: Q01DX Z (ip), vehicle: saline) 93 % of control; (dose: 0.25 mg/kg/injection, schedule: Q01DX Z (ip), vehicle: saline) 107 % of control and 97 % of control; (dose: 0.5 mg/kg/injection, schedule: Q01DX Z (ip), vehicle: saline) 92 % of control and 102 % of control; (dose: 1.0 mg/kg/injection, schedule: Q01DX Z (ip), vehicle: saline) 90 % of control.

For `CSc1ncnc2c1ncn2C1OC(CO)C(O)C1O` (stereo unspecified), the T/C is 105 % of control and 92 % of control (dose: 3.1 mg/kg/injection, schedule: Q01DX Z (ip), vehicle: carboxymethylcellulose (CMC)); 102 % of control under setting [3]; 105 % of control and 90 % of control under setting [8]; 105 % of control and 98 % of control under setting [9].

With `CCCCn1cnc2c(=S)nc[nH]c21`, the T/C by setting is: under setting [8], 105 % of control; under setting [10], 115 % of control; under setting [9], 98 % of control; under setting [4], 114 % of control; (dose: 100.0 mg/kg/injection, schedule: Q01DX Z (ip), vehicle: carboxymethylcellulose (CMC)) 98 % of control; (dose: 128.0 mg/kg/injection, schedule: Q01DX010 (ip), vehicle: saline) 95 % of control.

For the compound `N=[N+]=CC(=O)OCC(N)C(=O)O` (stereo unspecified), the T/C reads like this: (dose: 0.94 mg/kg/injection, schedule: Q01DX Z (ip), vehicle: saline) 113 % of control; (dose: 1.25 mg/kg/injection, schedule: Q01DX Z (ip), vehicle: saline) 118 % of control and 122 % of control; (dose: 2.5 mg/kg/injection, schedule: Q01DX Z (ip), vehicle: saline) 107 % of control and 117 % of control; (dose: 3.75 mg/kg/injection, schedule: Q01DX Z (ip), vehicle: saline) 160 % of control; (dose: 12.5 mg/kg/injection, schedule: Q01DX010 (ip), vehicle: saline) 175 % of control; (dose: 25.0 mg/kg/injection, schedule: Q01DX010 (ip), vehicle: saline) 90 % of control and 95 % of control.

On to `CC[n+]1c(-c2ccccc2)c2cc(N)ccc2c2ccc(N)cc21`, for which the T/C reads like this: (dose: 2.5 mg/kg/injection, schedule: Q01DX010 (ip), vehicle: saline) 165 % of control and 222 % of control; under setting [1], 190 % of control and 333 % of control; under setting [2], 100 % of control.

In the case of `Nc1nc(=S)c2ncn(C3OC(CO)C(O)C3O)c2[nH]1` (stereo unspecified), the T/C was 117 % of control (dose: 0.31 mg/kg/injection, schedule: Q01DX Z (ip), vehicle: carboxymethylcellulose (CMC)); 115 % of control (dose: 0.63 mg/kg/injection, schedule: Q01DX Z (ip), vehicle: carboxymethylcellulose (CMC)); 158 % of control under setting [11]; 95 % of control (dose: 5.0 mg/kg/injection, schedule: Q01DX Z (ip), vehicle: carboxymethylcellulose (CMC)); 95 % of control under setting [12]; 90 % of control under setting [10]. Moreover, the T/C (dose: 20.0 mg/kg/injection, schedule: Q01DX Z (ip), vehicle: carboxymethylcellulose (CMC)) is 90 % of control.

For the compound `CCN(CC)C(=S)S`, the T/C is, setting by setting: (dose: 125.0 mg/kg/injection, schedule: Q01DX Z (ip), vehicle: other) 99 % of control; (dose: 250.0 mg/kg/injection, schedule: Q01DX Z (ip), vehicle: other) 96 % of control; (dose: 1000.0 mg/kg/injection, schedule: Q01DX Z (ip), vehicle: other) 102 % of control.

As to `COc1cc2c(c(OC)c1OC)-c1ccc(OC)c(=O)cc1[C@@H](NC(C)=O)CC2`, the T/C is, setting by setting: (dose: 0.08 mg/kg/injection, schedule: Q01DX Z (ip), vehicle: saline) 112 % of control; (dose: 0.16 mg/kg/injection, schedule: Q01DX Z (ip), vehicle: saline) 114 % of control; (dose: 0.6 mg/kg/injection, schedule: Q01DX Z (ip), vehicle: saline) 151 % of control; (dose: 0.63 mg/kg/injection, schedule: Q01DX Z (ip), vehicle: saline) 177 % of control.

`CC(CCC(C)OS(C)(=O)=O)OS(C)(=O)=O` (stereo unspecified): the T/C is 95 % of control (dose: 1.25 mg/kg/injection, schedule: Q01DX Z (ip), vehicle: carboxymethylcellulose (CMC)); 111 % of control under setting [11]; 100 % of control (dose: 4.0 mg/kg/injection, schedule: Q01DX010 (ip), vehicle: saline); 105 % of control under setting [12]; 115 % of control and 105 % of control under setting [10]; 116 % of control (dose: 32.0 mg/kg/injection, schedule: Q01DX010 (ip), vehicle: saline). For the same compound, the T/C (dose: 64.0 mg/kg/injection, schedule: Q01DX010 (ip), vehicle: saline) is 88 % of control.

For `O=CN(O)CC(=O)O`, the T/C was 99 % of control under setting [13]; 109 % of control (dose: 125.0 mg/kg/injection, schedule: Q01DX Z (ip), vehicle: carboxymethylcellulose (CMC)); 110 % of control (dose: 250.0 mg/kg/injection, schedule: Q01DX Z (ip), vehicle: carboxymethylcellulose (CMC)); 101 % of control (dose: 500.0 mg/kg/injection, schedule: Q01DX Z (ip), vehicle: carboxymethylcellulose (CMC)).

For the compound `CN(C)c1nc(N(C)C)nc(N(C)C)n1`, the T/C runs as follows: (dose: 16.0 mg/kg/injection, schedule: Q01DX Z (ip), vehicle: carboxymethylcellulose (CMC)) 95 % of control; (dose: 18.8 mg/kg/injection, schedule: Q01DX010 (ip), vehicle: saline) 116 % of control and 100 % of control; (dose: 31.0 mg/kg/injection, schedule: Q01DX Z (ip), vehicle: carboxymethylcellulose (CMC)) 92 % of control; under setting [5], 116 % of control and 100 % of control; under setting [13], 88 % of control; (dose: 63.0 mg/kg/injection, schedule: Q01DX Z (ip), vehicle: carboxymethylcellulose (CMC)) 123 % of control. Moreover, the T/C is, setting by setting: under setting [6], 116 % of control and 105 % of control; under setting [7], 111 % of control and 100 % of control.

The values above are taken from PubChem BioAssay AID246 (DTP/NCI, 2004).
